Results: US9593097B2, “Axl inhibitors” (Pfizer Inc., priority 2014, dated 2017)
Read-outs that look alike come from different tables or passages of the source.

Tests used:
[1] = target: Axl phosphorylation in 293MSR-AxlWT6 cells (Homo sapiens (Human), UniProt P30530); experiment: Cellular Axl phosphorylation ELISA assay (Gas6-stimulated 293MSR-AxlWT6 cells); assay type: cell-based; details: read-out: CELL AXL IC50
Summary of the method: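 Phospho-Axl was quantified by sandwich ELISA (anti-Axl capture, anti-phosphotyrosine-HRP detection, TMB, OD 450 nm). IC50 came from four-parameter concentration-response fits.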

[2] = target: Human wild-type receptor tyrosine kinase protein Axl (residues 505-811) (Homo sapiens (Human), UniProt P30530); details: read-out: ENZYME AXL KI; Table 4B
Sequence of Human wild-type receptor tyrosine kinase protein Axl (residues 505-811) (P30530 505-811): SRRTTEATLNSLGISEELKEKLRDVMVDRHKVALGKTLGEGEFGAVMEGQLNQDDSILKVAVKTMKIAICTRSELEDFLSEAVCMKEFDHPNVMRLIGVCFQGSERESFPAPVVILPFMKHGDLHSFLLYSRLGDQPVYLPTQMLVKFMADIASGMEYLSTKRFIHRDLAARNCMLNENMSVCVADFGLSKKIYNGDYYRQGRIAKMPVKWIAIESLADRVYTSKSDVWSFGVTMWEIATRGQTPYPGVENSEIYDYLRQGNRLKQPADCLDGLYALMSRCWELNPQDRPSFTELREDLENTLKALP

Sequence of Axl phosphorylation in 293MSR-AxlWT6 cells (P30530 26-894): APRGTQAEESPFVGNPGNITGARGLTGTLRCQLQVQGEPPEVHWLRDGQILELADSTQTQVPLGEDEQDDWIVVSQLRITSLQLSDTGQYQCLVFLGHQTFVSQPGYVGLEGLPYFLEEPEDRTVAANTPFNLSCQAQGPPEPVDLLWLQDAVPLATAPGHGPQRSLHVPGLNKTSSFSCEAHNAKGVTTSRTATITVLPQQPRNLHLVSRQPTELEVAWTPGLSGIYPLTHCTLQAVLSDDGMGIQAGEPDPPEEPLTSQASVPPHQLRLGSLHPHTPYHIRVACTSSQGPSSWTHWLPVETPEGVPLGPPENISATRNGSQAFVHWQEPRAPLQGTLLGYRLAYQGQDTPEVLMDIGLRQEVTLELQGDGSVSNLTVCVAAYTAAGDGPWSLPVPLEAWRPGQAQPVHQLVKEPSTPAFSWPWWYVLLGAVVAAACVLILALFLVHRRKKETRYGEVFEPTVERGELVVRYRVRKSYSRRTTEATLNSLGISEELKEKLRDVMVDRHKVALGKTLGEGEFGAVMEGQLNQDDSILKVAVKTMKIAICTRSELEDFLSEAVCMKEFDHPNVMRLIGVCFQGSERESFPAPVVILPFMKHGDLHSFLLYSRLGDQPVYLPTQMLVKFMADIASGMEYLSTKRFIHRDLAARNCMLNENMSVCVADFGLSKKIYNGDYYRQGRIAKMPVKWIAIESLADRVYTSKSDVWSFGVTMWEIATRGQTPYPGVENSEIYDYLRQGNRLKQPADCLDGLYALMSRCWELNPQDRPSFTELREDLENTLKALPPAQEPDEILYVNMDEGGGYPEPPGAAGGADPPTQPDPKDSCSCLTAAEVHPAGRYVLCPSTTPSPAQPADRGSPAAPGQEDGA

## COc1ccnc2[nH]cc(C3CCN(c4cc(C(=O)N[C@H](C)CO)nc(OC[C@H]5CCCO5)n4)CC3)c12 [Example 459, N-[(2R)-1-hydroxypropan-2-yl]-6-[4-(4-methoxy-1H-pyrrolo[2,3-b]pyridin-3-yl)piperidin-1-yl]-2-[(2R)-tetrahydrofuran-2-ylmethoxy]pyrimidine-4-carboxamide]
[1]; Table 4B
  IC50: 0.272 nM
[2]
  Ki: < 0.013 nM

## COc1ccnc2[nH]nc(C3CCN(c4cc(C(=O)N[C@H](C)CO)nc(OCc5ccccc5)n4)CC3)c12 [Example 415, 2-(benzyloxy)-N-[(2R)-1-hydroxypropan-2-yl]-6-[4-(4-methoxy-1H-pyrazolo[3,4-b]pyridin-3-yl)piperidin-1-yl]pyrimidine-4-carboxamide]
[1]; Table 4B
  IC50: 0.052 nM
[2]
  Ki: < 0.013 nM

## COc1ccnc2[nH]cc(C3CCN(c4nc(OC[C@H]5C[C@H]5C#N)nc(C(=O)NC56CC(C5)C6)n4)CC3)c12 (single isomer, unassigned) [Example 504]
[1]; Table 4B
  IC50: 0.125 nM
[2]
  Ki: < 0.082 nM

## C[C@H](NC(=O)c1nc(OCC2CC2)nc(N2CCC(COc3cc(-c4cn(C)cn4)cnc3N)CC2)n1)C(F)(F)F [Example 391, 4-[4-({[2-amino-5-(1-methyl-1H-imidazol-4-yl)pyridin-3-yl]oxy}methyl)piperidin-1-yl]-6-(cyclopropylmethoxy)-N-[(2S)-1,1,1-trifluoropropan-2-yl]-1,3,5-triazine-2-carboxamide]
[1]; Table 4B
  IC50: 0.143 nM
[2]
  Ki: < 0.013 nM

## C[C@H](CO)NC(=O)c1cc(N2CCC(c3c[nH]c4ncccc34)CC2)nc(OC[C@H]2C[C@H]2C#N)n1 [Example 51, 2-{[(1S,2R)-2-cyanocyclopropyl]methoxy}-N-[(2R)-1-hydroxypropan-2-yl]-6-[4-(1H-pyrrolo[2,3-b]pyridin-3-yl)piperidin-1-yl]pyrimidine-4-carboxamide]
[1]; Table 4A
  IC50: 7.89 nM

## COc1ccnc2[nH]cc(C3CCN(c4cc(C(=O)N[C@H](C)CO)nc(OCC5(C#N)CC5)n4)CC3)c12 [Example 387, 2-[(1-cyanocyclopropyl)methoxy]-N-[(2R)-1-hydroxypropan-2-yl]-6-[4-(4-methoxy-1H-pyrrolo[2,3-b]pyridin-3-yl)piperidin-1-yl]pyrimidine-4-carboxamide]
[1]; Table 4B
  IC50: 0.152 nM
[2]
  Ki: < 0.018 nM

## C[C@@H](NC(=O)c1cc(N2CCC(c3ccc(N)c(C(N)=O)n3)CC2)nc(OCC2CC2(F)F)n1)C(C)(C)O (single isomer, unassigned) [Example 16]
[1]; Table 4A
  IC50: 12.6 nM

## C[C@H](NC(=O)c1cc(N2CCC(c3cccc(C(N)=O)n3)CC2)nc(OCC2(C#N)CC2)n1)C(F)(F)F [Example 13, 6-[4-(6-carbamoylpyridin-2-yl)piperidin-1-yl]-2-[(1-cyanocyclopropyl)methoxy]-N-[(2S)-1,1,1-trifluoropropan-2-yl]pyrimidine-4-carboxamide]
[1]; Table 4A
  IC50: 59 nM

## CCOc1nc(C(=O)NC23CC(C2)C3)cc(N2CCC(c3nc(C(N)=O)ccc3OCCN(C)C)CC2)n1 [Example 41, N-(bicyclo[1.1.1]pent-1-yl)-6-(4-{6-carbamoyl-3-[2-(dimethylamino)ethoxy]pyridin-2-yl}piperidin-1-yl)-2-ethoxypyrimidine-4-carboxamide]
[1]; Table 4A
  IC50: 124 nM

## COC[C@@H](C)Oc1nc(C(=O)N[C@H](C)CN(C)C)cc(N2CCC(c3ccc(N)c(C(N)=O)n3)CC2)n1 (single isomer, unassigned) [Example 36]
[1]; Table 4A
  IC50: 87.4 nM

## NC(=O)c1nc(C2CCN(c3cc(C(=O)NCC(F)(F)F)nc(OCC4CC4(F)F)n3)CC2)ccc1N (stereo not shown) [Example 5, 6-[4-(5-amino-6-carbamoylpyridin-2-yl)piperidin-1-yl]-2-[(2,2-difluoro-cyclopropyl)methoxy]-N-(2,2,2-trifluoroethyl) pyrimidine-4-carboxamide]
[1]; Table 4A
  IC50: 12.4 nM

## N#C[C@@H]1C[C@@H]1COc1nc(C(=O)NC23CC(C2)C3)nc(N2CCC(COc3cncnc3N)CC2)n1 [Example 66, 4-(4-{[(4-aminopyrimidin-5-yl)oxy]methyl}piperidin-1-yl)-N-(bicyclo[1.1.1]pent-1-yl)-6-{[(1S,2R)-2-cyanocyclopropyl]methoxy}-1,3,5-triazine-2-carboxamide]
[1]; Table 4A
  IC50: 61.8 nM

## N#C[C@@H]1C[C@@H]1COc1nc(C(=O)NC23CC(C2)C3)cc(N2CCC(c3n[nH]c4ncc(OCCO)cc34)CC2)n1 [Example 81, N-(bicyclo[1.1.1]pent-1-yl)-2-{[(1S,2R)-2-cyanocyclopropyl]methoxy}-6-{4-[5-(2-hydroxyethoxy)-1H-pyrazolo[3,4-b]pyridin-3-yl]piperidin-1-yl}pyrimidine-4-carboxamide]
[1]; Table 4A
  IC50: 5.21 nM

## COC[C@@H](C)Oc1nc(C(=O)NC23CC(C2)C3)nc(N2CCC(c3c[nH]c4nccc(OC)c34)CC2)n1 (single isomer, unassigned) [Example 505]
[1]; Table 4B
  IC50: 0.409 nM
[2]
  Ki: < 0.082 nM

## COC[C@@H](C)Oc1nc(C(=O)NC2CCC2)nc(N2CCC(c3c[nH]c4nccc(OC)c34)CC2)n1 [Example 502, N-cyclobutyl-4-{[(2R)-1-methoxypropan-2-yl]oxy}-6-[4-(4-methoxy-1H-pyrrolo[2,3-b]pyridin-3-yl)piperidin-1-yl]-1,3,5-triazine-2-carboxamide]
[1]; Table 4B
  IC50: 0.132 nM
[2]
  Ki: < 0.082 nM

## CC(CN(C)C)NC(=O)c1cc(N2CCC(c3ccc(N)c(C(N)=O)n3)CC2)nc(OCC2CC2)n1 (stereo not shown) [Example 34, 6-[4-(5-amino-6-carbamoylpyridin-2-yl)piperidin-1-yl]-2-(cyclopropyl-methoxy)-N-[1-(dimethylamino)propan-2-yl]pyrimidine-4-carboxamide]
[1]; Table 4A
  IC50: 30.5 nM

## C[C@H](CO)NC(=O)c1cc(N2CCC(COc3cc(-c4cn(C)cn4)cnc3N)CC2)nc(OCC2CC2)n1 [Example 384, 6-[4-({[2-amino-5-(1-methyl-1H-imidazol-4-yl)pyridin-3-yl]oxy}methyl)piperidin-1-yl]-2-(cyclopropylmethoxy)-N-[(2R)-1-hydroxypropan-2-yl]pyrimidine-4-carboxamide]
[1]; Table 4A
  IC50: 0.36 nM

## C[C@H](CO)Oc1nc(C(=O)NC23CC(C2)C3)cc(N2CCC(c3n[nH]c4ncccc34)CC2)n1 [Example 69, N-(bicyclo[1.1.1]pent-1-yl)-2-{[(2R)-1-hydroxypropan-2-yl]oxy}-6-[4-(1H-pyrazolo[3,4-b]pyridin-3-yl)piperidin-1-yl]pyrimidine-4-carboxamide]
[1]; Table 4A
  IC50: 228 nM

## CCOc1nc(C(=O)NC2CCC2)cc(N2CCC(c3nc(C(N)=O)ccc3OCCN(C)C)CC2)n1 [Example 2, 6-(4-{6-carbamoyl-3-[2-(dimethylamino)ethoxy]pyridin-2-yl}piperidin-1-yl)-N-cyclobutyl-2-ethoxypyrimidine-4-carboxamide]
[1]; Table 4A
  IC50: 246 nM

## N#C[C@@H]1C[C@@H]1COc1nc(C(=O)NCC(F)(F)F)cc(N2CCC(COc3cncnc3N)CC2)n1 [Example 33, 6-(4-{[(4-aminopyrimidin-5-yl)oxy]methyl}piperidin-1-yl)-2-{[(1S,2R)-2-cyanocyclopropyl]methoxy}-N-(2,2,2-trifluoroethyl) pyrimidine-4-carboxamide]
[1]; Table 4A
  IC50: 23.4 nM

## COc1ccnc2[nH]nc(C3CCN(c4nc(OC[C@H]5C[C@H]5C#N)nc(C(=O)NC5CCC5)n4)CC3)c12 [Example 501, 4-{[(1S,2R)-2-cyanocyclopropyl]methoxy}-N-cyclobutyl-6-[4-(4-methoxy-1H-pyrazolo[3,4-b]pyridin-3-yl)piperidin-1-yl]-1,3,5-triazine-2-carboxamide]
[1]; Table 4B
  IC50: 1.07 nM
[2]
  Ki: < 0.412 nM

## CN(C)CCOc1ccc(C(N)=O)nc1C1CCN(c2cc(C(=O)NC3CCC3)nc(OC[C@H]3C[C@H]3C#N)n2)CC1 [Example 18, 6-(4-{6-carbamoyl-3-[2-(dimethylamino)ethoxy]pyridin-2-yl}piperidin-1-yl)-2-{[(1S,2R)-2-cyanocyclopropyl]methoxy}-N-cyclobutyl-pyrimidine-4-carboxamide]
[1]; Table 4A
  IC50: 64.9 nM

## CN(C)CCOc1ccc(C(N)=O)nc1C1CCN(c2cc(C(=O)NC3CCC3)nc(OCC3CC3(F)F)n2)CC1 (stereo not shown) [Example 39, 6-(4-{6-carbamoyl-3-[2-(dimethylamino)ethoxy]pyridin-2-yl}piperidin-1-yl)-N-cyclobutyl-2-[(2,2-difluoro-cyclopropyl)methoxy] pyrimidine-4-carboxamide]
[1]; Table 4A
  IC50: 83.8 nM
